Reference: article PMC11375437, “Selective labelling of GBA2 in cells with fluorescent β-D-arabinofuranosyl cyclitol aziridines” (Chemical Science, 2024)

Tested on: GBA2
Assay: Labelling of GBA2 orthologue in zebrafish larvae homogenates
Type: biochemical, zebrafish (Danio rerio)
Settings: 1 h at 37 °C; ABP 3 and 7 at 1 μM, ABP 4 and 5 at 2.5 μM
Method: GBA2 orthologs are highly conserved among different species. […] The labelling capability of β-D-Araf aziridine ABPs toward GBA2 orthologs in these species was therefore evaluated. Homogenates of zebrafish larvae or mice brain homogenates were incubated with β-D-Araf ABPs 3–5 or broad-spectrum ABP 7 (Fig. 4).
Fig. 4 Fluorescent gel images of selective labelling of GBA2 orthologues by β-D-Araf aziridine ABPs in different species. Cyclophellitol-aziridine ABP 7 (1 μM) and β-D-Araf ABPs (ABP 3 at 1 μM and ABP 4 and 5 at 2.5 μM) were incubated with homogenates of zebrafish (15 μg total protein) and mice brain (15 μg total protein) for 1 h at 37 °C. […]
were transferred to nitrocellulose membrane for western blotting. Ponceau S staining was used to show total protein loading. […]
2.12 Reactivity of β-D-Araf aziridines towards GBA2 orthologue in other species β-D-Araf aziridine ABP 3-5 or ABP 7 was incubated with homogenates of zebrafish (Danio rerio) larvae or mice brain for 1 h at 37 °C. […] The zebrafish homogenates were passed through a desalting column (in the same way as described for the irreversibility evaluation above) to remove interference from biological pigments when scanning at λEX 473 nm and λEM ≥ 510 nm for BODIPY green fluorescence. […]

CN1/C(=C/C=C/C=C/C2=[N+](CCCCCC(=O)NCc3cn(CCCCCCCCN4[C@@H]5[C@H](CO)[C@@H](O)[C@H](O)[C@@H](O)[C@@H]54)nn3)c3ccccc3C2(C)C)C(C)(C)c2ccccc21 (stereo partly shown) [ABP 7]
Labelling selectivity in zebrafish larvae homogenates: show cross-reactivity towards GBA1
